Results reported in ChEMBL document CHEMBL3885861, “Open TG-GATES”.

Organism: Rattus norvegicus
Assay: Open TG-GATES - Regimen: Single
Type: toxicity, organism-based, Sprague-Dawley
Set-up: regimen Single, gender Male, age 6 weeks
Settings: in vivo, po, route gavage; for TC / TP / gamma-GTP / ALP / ALT / AST / CRE / DBIL / GLC / IP / K / LDH / Na / PL / RALB / TBIL / TG: tissue Plasma; for APTT / Bas / Eos / Fbg / Ht / Lym / MCH / MCHC / MCV / Mono / Neu / PT / RBC / Ret / WBC / Hb / Plat: tissue Blood; for KIDNEY_L / KIDNEY_R / KIDNEY_TOTAL: tissue Kidney; for LIVER: tissue Liver
[1] = 0 mg/kg, 24 h, dose level Control

## CC(C)Cc1ccc(C(C)C(=O)O)cc1 (centres undefined) [IBUPROFEN]
[1]
  TC: 79.4 mg/dL
  TP: 5.5 g/dL
  gamma-GTP: 1.2 IU/L
60 mg/kg, 3 h, dose level Low
  TERMINAL_BW: 204.2 g
  APTT: 21.7 s
  Bas: 0%
  Eos: 0%
  Fbg: 294.6 mg/dL
  Ht: 39.3%
  Lym: 73.8%
  MCH: 21.4 pg
  MCHC: 33.7%
  MCV: 63.8 fL
  Mono: 2.2%
  Neu: 22.6%
  PT: 15.3 s
  RBC: 618.2 x10_4/ul
  Ret: 7.9%
  WBC: 101.5 x10_2/uL
  KIDNEY_L: 0.9 g
  KIDNEY_R: 0.9 g
  KIDNEY_TOTAL: 1.7 g
  LIVER: 9.2 g
  ALP: 1434.6 IU/L
  ALT: 47.8 IU/L
  AST: 79.4 IU/L
  CRE: 0.2 mg/dL
  DBIL: 0.002 mg/dL
  GLC: 177 mg/dL
  IP: 8.4 mg/dL
  K: 4.1 meq/L
  LDH: 256 IU/L
  Na: 141.2 meq/L
  PL: 144.8 mg/dL
  RALB: 3 g/dL
  TBIL: 0.028 mg/dL
  TC: 85.2 mg/dL
  TG: 64.2 mg/dL
  TP: 5.4 g/dL
  gamma-GTP: 1.4 IU/L
60 mg/kg, 6 h, dose level Low
  TERMINAL_BW: 205.3 g
  APTT: 23.2 s
  Bas: 0%
  Eos: 1%
  Fbg: 292.4 mg/dL
  Hb: 13.4 g/dL
  Ht: 39.3%
  Lym: 72.2%
  MCH: 21.6 pg
  MCHC: 34%
  MCV: 63.5 fL
  Mono: 2.6%
  PT: 16 s
  Plat: 116.1 x10_4/uL
  RBC: 619.4 x10_4/ul
  Ret: 8%
  WBC: 76.4 x10_2/uL
  KIDNEY_L: 0.9 g
  KIDNEY_R: 1 g
  KIDNEY_TOTAL: 1.9 g
  LIVER: 8.8 g
  ALP: 1432.6 IU/L
  ALT: 45 IU/L
  AST: 79.6 IU/L
  CRE: 0.1 mg/dL
  DBIL: 0.004 mg/dL
  GLC: 174.8 mg/dL
  IP: 9.6 mg/dL
  K: 4.5 meq/L
  LDH: 256.6 IU/L
  Na: 140 meq/L
  PL: 130.4 mg/dL
  RALB: 2.9 g/dL
  TBIL: 0.032 mg/dL
  TC: 72.6 mg/dL
  TG: 56 mg/dL
  TP: 5.1 g/dL
  gamma-GTP: 1.2 IU/L
60 mg/kg, 9 h, dose level Low
  TERMINAL_BW: 199.8 g
  Bas: 0%
  Eos: 0.6%
  Fbg: 275 mg/dL
  Hb: 12.8 g/dL
  Ht: 38.1%
  Lym: 76.6%
  MCH: 21.5 pg
  MCHC: 33.6%
  MCV: 64.1 fL
  Mono: 2.6%
  Neu: 19.2%
  PT: 15.8 s
  Plat: 116.8 x10_4/uL
  RBC: 594.6 x10_4/ul
  Ret: 8.2%
  WBC: 66.8 x10_2/uL
  KIDNEY_L: 1 g
  KIDNEY_R: 1 g
  KIDNEY_TOTAL: 1.9 g
  LIVER: 8.2 g
  ALP: 1788.8 IU/L
  ALT: 40.8 IU/L
  AST: 72.4 IU/L
  CRE: 0.1 mg/dL
  DBIL: 0.006 mg/dL
  GLC: 174.8 mg/dL
  K: 4.4 meq/L
  LDH: 208.4 IU/L
  Na: 139.8 meq/L
  RALB: 2.9 g/dL
  TBIL: 0.026 mg/dL
  TC: 67 mg/dL
  TG: 58.6 mg/dL
  TP: 5.3 g/dL
  gamma-GTP: 1 IU/L
60 mg/kg, 24 h, dose level Low
  TERMINAL_BW: 206.8 g
  APTT: 21.7 s
  Bas: 0%
  Eos: 1%
  Fbg: 309.8 mg/dL
  Ht: 40.6%
  Lym: 78.2%
  MCH: 21.6 pg
  MCHC: 34.1%
  MCV: 63.2 fL
  Mono: 3.2%
  Neu: 17%
  PT: 16.5 s
  Plat: 112 x10_4/uL
  RBC: 643.6 x10_4/ul
  Ret: 6.8%
  WBC: 119.2 x10_2/uL
  KIDNEY_L: 0.9 g
  KIDNEY_R: 0.9 g
  KIDNEY_TOTAL: 1.8 g
  LIVER: 9.8 g
  ALP: 1457.4 IU/L
  ALT: 46.6 IU/L
  AST: 76.8 IU/L
  CRE: 0.2 mg/dL
  DBIL: 0 mg/dL
  GLC: 183.6 mg/dL
  IP: 7.7 mg/dL
  K: 4.5 meq/L
  LDH: 274 IU/L
  Na: 141.6 meq/L
  PL: 142.2 mg/dL
  RALB: 3 g/dL
  TBIL: 0.004 mg/dL
  TC: 76.6 mg/dL
